Laboratory results reported in patent US11951269B2, “Drug-coated medical devices” (Medtronic Vascular, Inc., priority 2018, dated 2024).

Legend:
[1] = Solubility of DEX in various solvents; format: physicochemical
[2] = Ex-vivo model: coated balloon inflated against bovine carotid artery in simulated flow loop, drug by HPLC; conditions: for tissue concentration average: bovine carotid artery ex vivo, n=5
Procedure: The coated balloons were inflated against tissue in an ex-vivo model. Briefly, the model included a bovine carotid artery mounted in a simulated flow loop comprising appropriately sized tubing. The system was maintained at 37° C. A standard hemostasis valve and 8 Fr introducer sheath are used to introduce the coated balloon into the tubing, the balloon is tracked through the sheath and tubing into the bovine carotid artery, and the balloon is deployed (inflated to approximately 1.1 B.A.R. and held for 60 s) against the bovine carotid artery tissue. The tissue and balloon are removed for analysis. […] Briefly, the amount of drug was measured by using HPLC of extracted solutions from testing specimens, such as utilizing a solvent to solubilize and remove all remaining drug from the balloon for analysis.

[3] = In vivo porcine model: coated balloon deployed in femoral arteries, drug concentration in tissue; conditions: for concentration at 1 day / concentration at 28 days: pig, femoral artery tissue, porcine femoral arteries, n=18, read-out: median concentration in the tissue; for concentration at 28 days: after 28 days; for vessels in which drug was detectable: porcine
Procedure: In vivo studies are also performed. […] After 1 day, the median sirolimus concentration in the tissue is about 0.62 μg/g, and after 28 days the median concentration is about 0.07 μg/g (n=18).

Row | SMILES | DEX solubility ([1]; solvent Acetone) [mg\mL] | DEX solubility ([1]; solvent Acetonitrile) [mg\mL] | DEX solubility ([1]; solvent Ethanol) [mg\mL] | DEX solubility ([1]; solvent Methanol) [mg\mL] | DEX solubility ([1]; solvent THF) [mg\mL] | tissue concentration average [2] | concentration at 1 day ([3]; after 1 day) [ng/g] | concentration at 28 days [3] [ng/g] | vessels in which drug was detectable ([3]; after 1 day) | vessels in which drug was detectable ([3]; day 28) | drug transferred to the tissue ([2]; sirolimus/urea first layer, DEX/urea second layer, bovine carotid artery, 37° C., inflated 60 s)
1 | C[C@@H]1C[C@H]2[C@@H]3CCC4=CC(=O)C=C[C@]4(C)[C@@]3(F)[C@@H](O)C[C@]2(C)[C@@]1(O)C(=O)CO [DEX, dexamethasone] | 12 | 10 | 8 | 15 | 30 | about 22.6 μg DEX/g of tissue | ~0.525 | ~0.5 | four of six vessels | two of six vessels | 
2 | CO[C@H]1C[C@@H]2CC[C@@H](C)[C@@](O)(O2)C(=O)C(=O)N2CCCC[C@H]2C(=O)O[C@H]([C@H](C)C[C@@H]2CC[C@@H](O)[C@H](OC)C2)CC(=O)[C@H](C)/C=C(\C)[C@@H](O)[C@@H](OC)C(=O)[C@H](C)C[C@H](C)/C=C/C=C/C=C/1C [sirolimus] |  |  |  |  |  | about 25.9 μg sirolimus/g of tissue | ~620 | ~70 |  |  | About 1.7%
